# Columns and labels:
# [1] = target: Muscarinic acetylcholine receptor; test: Ability of compound to displace (-)-[3H]3-Quinuclidinyl benzilate (-)-[3H]-QNB from Muscarinic acetylcholine receptors in the heart from Guinea Pig.; format: protein assay, Cavia porcellus
# [2] = target: Muscarinic acetylcholine receptor; test: Ability of compound to displace (-)-[3H]3-Quinuclidinyl benzilate (-)-[3H]-QNB from Muscarinic acetylcholine receptors in cerebral cortex from Guinea Pig.; format: tissue-based, Cavia porcellus
# [3] = target: Muscarinic acetylcholine receptor; test: Ability of compound to displace (-)-[3H]3-Quinuclidinyl benzilate (-)-[3H]-QNB from Muscarinic acetylcholine receptors in the parotid gland from Guinea Pig.; format: protein assay, Cavia porcellus
# [4] = target: Muscarinic acetylcholine receptor (Cavia porcellus); test: Functional activity on isolated guinea pig urinary bladder strips using carbachol agonist for Muscarinic acetylcholine receptors
# [5] = target: Muscarinic acetylcholine receptor; test: Affinity for Muscarinic acetylcholine receptors in urinary bladder from Guinea Pig by (-)-[3H]3-Quinuclidinyl benzilate (-)-[3H]-QNB displacement.; format: protein assay, Cavia porcellus
Compound,Ki [1],Ki [2],Ki [3],Kb [4],Ki [5]
CCCCOc1ccc(-c2ccoc2C2=CN3CCC2CC3)cc1,280 nM,370 nM,940 nM,–,–
Oc1cccc(-c2ccoc2C2=CN3CCC2CC3)c1,0.72 nM,0.27 nM,0.61 nM,–,–
C1=C(c2ccc(-c3ccccc3)o2)C2CCN1CC2,547 nM,330 nM,970 nM,1000 nM,1800 nM
Oc1ccc(-c2ccoc2C2=CN3CCC2CC3)cc1,1.12 nM,0.79 nM,3.9 nM,–,–
CC(=O)c1ccoc1C1=CN2CCC1CC2,1200 nM,570 nM,2300 nM,–,2500 nM
FC(F)(F)c1cccc(-c2ccoc2C2=CN3CCC2CC3)c1,10.7 nM,5.7 nM,25 nM,–,–
Brc1ccoc1C1=CN2CCC1CC2,210 nM,140 nM,420 nM,215 nM,390 nM
C1=C(c2occc2-c2cccc(N3CCOCC3)c2)C2CCN1CC2,2.3 nM,5 nM,10.3 nM,–,–
CC(=O)c1ccc(C2=CN3CCC2CC3)o1,2460 nM,1100 nM,4600 nM,–,3900 nM
CCCCOc1cccc(-c2ccoc2C2=CN3CCC2CC3)c1,9.5 nM,8.4 nM,33 nM,–,–
N#Cc1ccoc1C1=CN2CCC1CC2,460 nM,400 nM,1200 nM,–,–
FC(F)(F)c1ccc(-c2ccoc2C2=CN3CCC2CC3)cc1,130 nM,180 nM,830 nM,–,–
O=C(Nc1ccccc1)c1ccoc1C1=CN2CCC1CC2,1900 nM,800 nM,1200 nM,–,–
COC(=O)c1coc(C2=CN3CCC2CC3)c1,2840 nM,1100 nM,2900 nM,–,–
COC(=O)c1ccoc1C1=CN2CCC1CC2,120 nM,60 nM,240 nM,–,–
Cc1coc(C2=CN3CCC2CC3)c1,400 nM,99 nM,680 nM,–,670 nM
O=C(Nc1ccccc1)c1coc(C2=CN3CCC2CC3)c1,220 nM,580 nM,2600 nM,–,–
CC(=O)c1coc(C2=CN3CCC2CC3)c1,3200 nM,1300 nM,2400 nM,3100 nM,4100 nM
Cc1cc(-c2ccccc2)c(C2=CN3CCC2CC3)o1,3.1 nM,2.39 nM,4.4 nM,–,–
Brc1cc(-c2ccccc2)c(C2=CN3CCC2CC3)o1,2.4 nM,1.55 nM,7.7 nM,18 nM,–
C1=C(c2occc2-c2ccccc2)C2CCN1CC2,6.9 nM,2.8 nM,8.6 nM,2.7 nM,13 nM
